Measurements: US11053204B2, “Pyrimidinyloxy benzene derivatives as herbicides” (FMC Corporation, priority 2015, dated 2021)

How the values were obtained:
Assay type in all cases: in vivo
[1] = test system: kochia (Kochia scoparia); test: Test C preemergence, plant response rating
[2] = test system: wild poinsettia (Euphorbia heterophylla); test: Test C postemergence, plant response rating; details: for Poinsettia, Wild plant response rating: scale 0 to 100 (0 no effect, 100 complete control)
Outline: (§1)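 Pre-emergence: seeds sown in loam soil–sand blend or silt loam and sprayed with test chemicals in a non-phytotoxic solvent mixture with surfactant. Post-emergence: plants 2 to 18 cm (1- to 4-leaf stage) in peat-based potting medium, same formulation. Greenhouse 13 to 15 d; visual rating 0 (no effect) to 100 (complete control) versus controls.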

[3] = test system: pigweed, palmer (palmer pigweed, Amaranthus palmeri); test: Test C postemergence, plant response rating; details: for Pigweed, Palmer plant response rating: scale 0 to 100 (0 no effect, 100 complete control)
Outline: as §1

[4] = test system: field poppy (Papaver rhoeas); test: Test C postemergence, plant response rating; details: for Field Poppy plant response rating: scale 0 to 100 (0 no effect, 100 complete control)
Outline: as §1

[5] = test system: buckwheat, wild (wild buckwheat, Polygonum convolvulus); test: Test C postemergence, plant response rating; details: for Buckwheat, Wild plant response rating: scale 0 to 100 (0 no effect, 100 complete control)
Outline: as §1

[6] = test system: surinam grass (Brachiaria decumbens); test: Test C postemergence, plant response rating
Outline: as §1

[7] = test system: windgrass (Apera spica-venti); test: Test C postemergence, plant response rating
Outline: as §1

[8] = test system: johnsongrass (Sorghum halepense); test: Test C postemergence, plant response rating; details: for Johnsongrass plant response rating: scale 0 to 100 (0 no effect, 100 complete control)
Outline: as §1

[9] = test system: field violet (Viola arvensis); test: Test C postemergence, plant response rating; details: for Field Violet plant response rating: scale 0 to 100 (0 no effect, 100 complete control)
Outline: as §1

[10] = test system: Canada thistle (Cirsium arvense); test: Test C postemergence, plant response rating; details: for Canada Thistle plant response rating: scale 0 to 100 (0 no effect, 100 complete control)
Outline: as §1

[11] = test system: geranium, cutleaf (cutleaf geranium, Geranium dissectum); test: Test C postemergence, plant response rating; details: for Geranium, Cutleaf plant response rating: scale 0 to 100 (0 no effect, 100 complete control)
Outline: as §1

[12] = test system: nightshade (eastern black nightshade, Solanum ptycanthum); test: Test C postemergence, plant response rating; details: for Nightshade plant response rating: scale 0 to 100 (0 no effect, 100 complete control)
Outline: as §1

[13] = test system: speedwell (bird's-eye speedwell, Veronica persica); test: Test C postemergence, plant response rating; details: for Speedwell plant response rating: scale 0 to 100 (0 no effect, 100 complete control)
Outline: as §1

[14] = test system: johnsongrass (Sorghum halepense); test: Test C preemergence, plant response rating
[15] = test system: oat, wild (wild oat Avena fatua); test: Test C preemergence, plant response rating
[16] = test system: windgrass (Apera spica-venti); test: Test C preemergence, plant response rating
[17] = test system: pigweed, palmer (palmer pigweed, Amaranthus palmeri); test: Test C preemergence, plant response rating
[18] = test system: wild poinsettia (Euphorbia heterophylla); test: Test C preemergence, plant response rating
[19] = 125 g ai/ha, scale 0 to 100 (0 no effect, 100 complete control)

CCCCC(=O)c1c(Br)cccc1Oc1ncc(Cl)cn1 [Compound 79]
Plant response rating, Kochia ([1]; 16 g ai/ha, scale 0 to 100): 5 | Plant response rating, Kochia ([1]; 31 g ai/ha, scale 0 to 100): 90 | Plant response rating, Kochia ([1]; 62 g ai/ha, scale 0 to 100): 90 | Plant response rating, Kochia ([1]; 125 g ai/ha, scale of 0 to 100): 100 | Plant response rating, Poinsettia, Wild ([2]; 16 g ai/ha, scale of 0 to 100): 30 | Plant response rating, Poinsettia, Wild ([2]; 31 g ai/ha, scale 0 to 100): 75 | Poinsettia, Wild plant response rating ([2]; 62 g ai/ha): 80 | Poinsettia, Wild plant response rating ([2]; 125 g ai/ha): 85 | Plant response rating, Pigweed, Palmer ([3]; 16 g ai/ha, scale of 0 to 100): 60 | Plant response rating, Pigweed, Palmer ([3]; 31 g ai/ha, scale 0 to 100): 80 | Pigweed, Palmer plant response rating ([3]; 62 g ai/ha): 70 | Pigweed, Palmer plant response rating ([3]; 125 g ai/ha): 85 | Plant response rating, Field Poppy ([4]; 16 g ai/ha, scale of 0 to 100): 85 | Plant response rating, Field Poppy ([4]; 31 g ai/ha, scale 0 to 100): 98 | Field Poppy plant response rating ([4]; 62 g ai/ha): 100 | Field Poppy plant response rating ([4]; 125 g ai/ha): 100 | Plant response rating, Buckwheat, Wild ([5]; 16 g ai/ha, scale of 0 to 100): 75 | Plant response rating, Buckwheat, Wild ([5]; 31 g ai/ha, scale 0 to 100): 80 | Buckwheat, Wild plant response rating ([5]; 62 g ai/ha): 85 | Buckwheat, Wild plant response rating ([5]; 125 g ai/ha): 90 | Plant response rating, Surinam Grass ([6]; 16 g ai/ha, scale of 0 to 100): 25 | Plant response rating, Surinam Grass ([6]; 31 g ai/ha, scale 0 to 100): 25 | Surinam Grass plant response rating [6, 19]: 35 | Plant response rating, Windgrass ([7]; 16 g ai/ha, scale of 0 to 100): 20 | Plant response rating, Windgrass ([7]; 31 g ai/ha, scale 0 to 100): 35 | Windgrass plant response rating [7, 19]: 30 | Plant response rating, Johnsongrass ([8]; 16 g ai/ha, scale of 0 to 100): 40 | Plant response rating, Johnsongrass ([8]; 31 g ai/ha, scale 0 to 100): 65 | Johnsongrass plant response rating ([8]; 62 g ai/ha): 60 | Johnsongrass plant response rating ([8]; 125 g ai/ha): 85 | Plant response rating, Field Violet ([9]; 16 g ai/ha, scale of 0 to 100): 70 | Plant response rating, Field Violet ([9]; 31 g ai/ha, scale 0 to 100): 75 | Field Violet plant response rating ([9]; 62 g ai/ha): 85 | Field Violet plant response rating ([9]; 125 g ai/ha): 90 | Plant response rating, Canada Thistle ([10]; 16 g ai/ha, scale of 0 to 100): 55 | Plant response rating, Canada Thistle ([10]; 31 g ai/ha, scale 0 to 100): 65 | Canada Thistle plant response rating ([10]; 62 g ai/ha): 70 | Canada Thistle plant response rating ([10]; 125 g ai/ha): 100 | Plant response rating, Geranium, Cutleaf ([11]; 16 g ai/ha, scale of 0 to 100): 45 | Plant response rating, Geranium, Cutleaf ([11]; 31 g ai/ha, scale 0 to 100): 50 | Geranium, Cutleaf plant response rating ([11]; 62 g ai/ha): 55 | Geranium, Cutleaf plant response rating ([11]; 125 g ai/ha): 65 | Plant response rating, Nightshade ([12]; 16 g ai/ha, scale of 0 to 100): 90 | Plant response rating, Nightshade ([12]; 31 g ai/ha, scale 0 to 100): 95 | Nightshade plant response rating ([12]; 62 g ai/ha): 95 | Nightshade plant response rating ([12]; 125 g ai/ha): 100 | Plant response rating, Speedwell ([13]; 16 g ai/ha, scale of 0 to 100): 85 | Plant response rating, Speedwell ([13]; 31 g ai/ha, scale 0 to 100): 90 | Speedwell plant response rating ([13]; 62 g ai/ha): 98 | Speedwell plant response rating ([13]; 125 g ai/ha): 100 | Plant response rating, Johnsongrass ([14]; 16 g ai/ha, scale 0 to 100): 0 | Plant response rating, Johnsongrass ([14]; 31 g ai/ha, scale 0 to 100): 5 | Plant response rating, Johnsongrass ([14]; 62 g ai/ha, scale 0 to 100): 50 | Plant response rating, Johnsongrass ([14]; 125 g ai/ha, scale of 0 to 100): 70 | Plant response rating, Oat, Wild ([15]; 16 g ai/ha, scale 0 to 100): 0 | Plant response rating, Oat, Wild ([15]; 31 g ai/ha, scale 0 to 100): 0 | Plant response rating, Oat, Wild ([15]; 62 g ai/ha, scale 0 to 100): 5 | Plant response rating, Oat, Wild ([15]; 125 g ai/ha, scale of 0 to 100): 40 | Plant response rating, Windgrass ([16]; 16 g ai/ha, scale 0 to 100): 60 | Plant response rating, Windgrass ([16]; 31 g ai/ha, scale 0 to 100): 80 | Plant response rating, Windgrass ([16]; 62 g ai/ha, scale 0 to 100): 100 | Plant response rating, Windgrass ([16]; 125 g ai/ha, scale of 0 to 100): 100 | Plant response rating, Pigweed, Palmer ([17]; 16 g ai/ha, scale 0 to 100): 75 | Plant response rating, Pigweed, Palmer ([17]; 31 g ai/ha, scale 0 to 100): 85 | Plant response rating, Pigweed, Palmer ([17]; 62 g ai/ha, scale 0 to 100): 90 | Plant response rating, Pigweed, Palmer ([17]; 125 g ai/ha, scale of 0 to 100): 90 | Plant response rating, Poinsettia, Wild ([18]; 16 g ai/ha, scale 0 to 100): 0 | Plant response rating, Poinsettia, Wild ([18]; 31 g ai/ha, scale 0 to 100): 0 | Plant response rating, Poinsettia, Wild ([18]; 62 g ai/ha, scale 0 to 100): 10 | Plant response rating, Poinsettia, Wild ([18]; 125 g ai/ha, scale of 0 to 100): 40
